Experimental data reported in ChEMBL document CHEMBL1201862, “PubChem BioAssay data set” (2004).
Calls of active or inactive are those of the source.

Assays:
[1] = system: Streptococcus; assay: Group A Streptococcus viability loss, dose response, counter-screen for streptokinase expression inhibitor project, luminescence, BacTiterGlo (AID 1915); format: functional, organism-based;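 also: potency for reduction of bacterial viability or growth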
[2] = Luminescence Cell-Based Dose Retest to Confirm Inhibitors of Cancer Stem Cells. [Related pubchem assays (depositor defined):AID2717, AID2721]; format: functional; conditions: Homo sapiens
[3] = system: Streptococcus sp. 'group A'; assay: growth inhibition of control SK(-) GAS strain, dose response, counter-screen for streptokinase expression inhibitor project, luminescence, kanamycin, BacTiterGlo, confirmation (AID 1900); format: functional, organism-based
[4] = molecular target: FAD-linked sulfhydryl oxidase ALR (Homo sapiens, UniProt P55789); assay: inhibitors of human ALR sulfhydryl oxidase, dose response, biochemical, H2O2 detection, luminescence, cherry-pick (AID 493248)
[5] = molecular target: Cytochrome P450 3A4 (Homo sapiens, UniProt P08684);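 also: CYP3A4 tested as one member of a cytochrome P450 panel screen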
[6] = molecular target: Cytochrome P450 2C9 (Homo sapiens, UniProt P11712)
[7] = molecular target: Cytochrome P450 2C19 (Homo sapiens, UniProt P33261); assay: Cytochrome panel assay with activity outcomes. Panel member name: p450-cyp2c19 Compounds with AC50 equal or less than 10 uM are considered active; format: functional; conditions: read-out: AC50
[8] = molecular target: Cytochrome P450 2D6 (Homo sapiens, UniProt P10635);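 also: CYP2D6 member of a cytochrome P450 panel assay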
[9] = molecular target: T1, Rac GTPase-activating protein 1 (Homo sapiens, UniProt Q9H0H5); assay: MgcRacGAP GTPase-activating activity inhibitors, confirmation, biochemical, ADP Hunter fluorescence, primary and confirmatory (AID 624330); format: functional
T1 sequence (Q9H0H5 whole entry): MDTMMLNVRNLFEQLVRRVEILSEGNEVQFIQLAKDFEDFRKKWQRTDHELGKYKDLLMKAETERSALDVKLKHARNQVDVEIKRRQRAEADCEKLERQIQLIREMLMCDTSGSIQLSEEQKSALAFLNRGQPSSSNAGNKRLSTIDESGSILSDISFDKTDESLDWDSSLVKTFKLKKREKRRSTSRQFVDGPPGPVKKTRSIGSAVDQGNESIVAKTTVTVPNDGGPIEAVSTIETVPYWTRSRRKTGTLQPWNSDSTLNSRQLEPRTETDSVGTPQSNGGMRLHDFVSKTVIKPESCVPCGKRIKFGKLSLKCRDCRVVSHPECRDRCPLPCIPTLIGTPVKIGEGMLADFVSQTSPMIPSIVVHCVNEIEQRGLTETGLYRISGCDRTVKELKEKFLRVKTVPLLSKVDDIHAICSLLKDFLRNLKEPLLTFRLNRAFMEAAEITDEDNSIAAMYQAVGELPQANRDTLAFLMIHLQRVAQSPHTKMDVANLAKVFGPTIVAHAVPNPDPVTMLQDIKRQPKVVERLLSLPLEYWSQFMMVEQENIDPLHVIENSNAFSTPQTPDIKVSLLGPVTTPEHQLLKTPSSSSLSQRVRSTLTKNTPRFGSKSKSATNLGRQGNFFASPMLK

[10] = inhibitors of intracellular T. cruzi replication, confirmation, NIH3T3 host cells, beta-gal luminescence (AID 2044); format: functional, cell-based;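 also: intracellular parasites grown in NIH/3T3 mouse fibroblasts as host cells; luminescent beta-galactosidase reporter signal from transgenic T. cruzi replicating inside host cells; inhibitors lower the luminescence signal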
[11] = cytotoxicity toward NIH3T3 fibroblasts, dose response, counter-screen, cell-based, ATP luminescence, mouse fibroblasts (AID 2010); format: functional;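 also: cells exposed to compound for about 90 hours before reading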
[12] = molecular target: T2, Cytochrome P450 1A2 (Homo sapiens, UniProt P05177);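 also: PubChem cytochrome P450 panel assay, CYP1A2 panel member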
T2 sequence (P05177 whole entry): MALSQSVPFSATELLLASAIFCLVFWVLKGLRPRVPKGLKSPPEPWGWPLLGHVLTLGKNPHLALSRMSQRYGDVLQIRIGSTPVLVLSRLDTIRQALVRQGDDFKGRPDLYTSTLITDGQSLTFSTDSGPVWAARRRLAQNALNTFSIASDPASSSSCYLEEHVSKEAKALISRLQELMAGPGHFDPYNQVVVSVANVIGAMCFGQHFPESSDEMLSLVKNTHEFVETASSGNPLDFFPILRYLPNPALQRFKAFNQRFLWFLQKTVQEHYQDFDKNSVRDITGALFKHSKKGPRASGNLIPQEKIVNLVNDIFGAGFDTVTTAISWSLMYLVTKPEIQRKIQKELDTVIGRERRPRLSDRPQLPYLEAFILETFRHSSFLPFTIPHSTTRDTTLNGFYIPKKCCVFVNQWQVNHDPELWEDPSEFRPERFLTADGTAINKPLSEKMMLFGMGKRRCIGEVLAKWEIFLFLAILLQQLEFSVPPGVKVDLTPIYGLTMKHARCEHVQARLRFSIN

[13] = molecular target: T3, RNA-binding protein pos-1 (Caenorhabditis elegans, UniProt G5EF15); assay: inhibitors of POS-1/mex-3 RNA binding, dose response, biochemical, fluorescence polarization (AID 1964);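 also: purified POS-1 fused to maltose binding protein made in E. coli; potency of compounds blocking POS-1 binding to fluorescent RNA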
T3 sequence (G5EF15 whole entry): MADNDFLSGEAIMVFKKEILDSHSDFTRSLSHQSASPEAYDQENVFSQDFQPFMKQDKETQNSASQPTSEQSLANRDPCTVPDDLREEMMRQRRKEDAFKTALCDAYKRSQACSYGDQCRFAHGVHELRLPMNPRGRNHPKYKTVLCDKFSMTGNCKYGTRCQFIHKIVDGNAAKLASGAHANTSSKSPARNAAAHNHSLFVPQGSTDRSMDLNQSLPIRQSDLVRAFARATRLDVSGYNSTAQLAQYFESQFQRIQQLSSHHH

[14] = molecular target: T4, Zinc finger protein mex-5 (Caenorhabditis elegans, UniProt Q9XUB2); assay: MEX-5/TCR-2 RNA interaction inhibitors, dose response, biochemical, C. elegans, fluorescence polarization (AID 1960)
T4 sequence (Q9XUB2 whole entry): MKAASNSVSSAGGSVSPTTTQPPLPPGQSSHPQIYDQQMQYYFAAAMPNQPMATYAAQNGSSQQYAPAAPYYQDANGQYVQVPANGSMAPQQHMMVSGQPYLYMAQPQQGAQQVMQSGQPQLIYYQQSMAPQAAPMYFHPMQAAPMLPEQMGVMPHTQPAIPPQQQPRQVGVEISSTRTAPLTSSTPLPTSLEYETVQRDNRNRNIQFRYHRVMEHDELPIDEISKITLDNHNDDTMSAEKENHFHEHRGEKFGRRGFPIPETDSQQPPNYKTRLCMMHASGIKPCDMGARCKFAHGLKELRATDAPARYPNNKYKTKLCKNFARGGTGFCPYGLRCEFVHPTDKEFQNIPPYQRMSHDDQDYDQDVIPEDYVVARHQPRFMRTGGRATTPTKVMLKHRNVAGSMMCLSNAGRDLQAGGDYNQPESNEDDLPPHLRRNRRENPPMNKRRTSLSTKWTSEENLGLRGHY

Cytochrome P450 2C9, sequence (P11712 whole entry): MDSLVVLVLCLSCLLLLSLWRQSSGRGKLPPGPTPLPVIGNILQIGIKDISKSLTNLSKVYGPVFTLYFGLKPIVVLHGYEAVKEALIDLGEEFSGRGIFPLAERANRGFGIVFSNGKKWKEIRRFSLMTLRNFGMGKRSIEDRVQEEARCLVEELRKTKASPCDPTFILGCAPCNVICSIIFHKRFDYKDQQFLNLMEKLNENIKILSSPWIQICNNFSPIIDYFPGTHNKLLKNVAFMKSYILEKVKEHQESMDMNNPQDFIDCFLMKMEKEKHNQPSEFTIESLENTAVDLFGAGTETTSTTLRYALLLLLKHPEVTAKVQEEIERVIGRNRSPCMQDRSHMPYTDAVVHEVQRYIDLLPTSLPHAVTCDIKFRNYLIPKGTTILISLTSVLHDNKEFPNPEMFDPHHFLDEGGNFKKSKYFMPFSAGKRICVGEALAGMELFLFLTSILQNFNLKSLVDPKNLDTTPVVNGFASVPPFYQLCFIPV
Cytochrome P450 3A4, sequence (P08684 whole entry): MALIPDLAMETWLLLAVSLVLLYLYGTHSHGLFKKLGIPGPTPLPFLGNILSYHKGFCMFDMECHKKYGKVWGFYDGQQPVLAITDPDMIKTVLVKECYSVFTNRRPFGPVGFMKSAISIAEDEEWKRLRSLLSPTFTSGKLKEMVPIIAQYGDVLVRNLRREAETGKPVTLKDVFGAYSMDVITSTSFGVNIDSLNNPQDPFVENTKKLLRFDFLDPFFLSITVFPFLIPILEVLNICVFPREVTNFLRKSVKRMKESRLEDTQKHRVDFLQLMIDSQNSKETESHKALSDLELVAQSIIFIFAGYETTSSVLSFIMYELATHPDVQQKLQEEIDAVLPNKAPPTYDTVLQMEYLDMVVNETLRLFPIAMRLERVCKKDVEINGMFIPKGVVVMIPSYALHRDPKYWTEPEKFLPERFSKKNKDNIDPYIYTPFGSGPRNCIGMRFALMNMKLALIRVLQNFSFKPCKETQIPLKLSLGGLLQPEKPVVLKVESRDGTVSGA
Cytochrome P450 2D6, sequence (P10635 whole entry): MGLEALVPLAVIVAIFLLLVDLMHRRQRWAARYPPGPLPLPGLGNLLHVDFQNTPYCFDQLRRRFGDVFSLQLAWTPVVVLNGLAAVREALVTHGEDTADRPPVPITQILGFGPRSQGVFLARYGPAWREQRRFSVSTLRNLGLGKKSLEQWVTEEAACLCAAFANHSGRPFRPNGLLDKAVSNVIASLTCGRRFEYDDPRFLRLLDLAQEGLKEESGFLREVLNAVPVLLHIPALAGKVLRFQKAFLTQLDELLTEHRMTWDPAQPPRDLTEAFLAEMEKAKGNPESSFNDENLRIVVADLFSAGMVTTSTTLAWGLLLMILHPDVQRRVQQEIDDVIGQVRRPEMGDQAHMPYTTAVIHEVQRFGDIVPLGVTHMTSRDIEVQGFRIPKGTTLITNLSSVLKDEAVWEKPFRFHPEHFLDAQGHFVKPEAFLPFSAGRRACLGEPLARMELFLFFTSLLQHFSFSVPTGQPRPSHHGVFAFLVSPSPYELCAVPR
FAD-linked sulfhydryl oxidase ALR, sequence (P55789 whole entry): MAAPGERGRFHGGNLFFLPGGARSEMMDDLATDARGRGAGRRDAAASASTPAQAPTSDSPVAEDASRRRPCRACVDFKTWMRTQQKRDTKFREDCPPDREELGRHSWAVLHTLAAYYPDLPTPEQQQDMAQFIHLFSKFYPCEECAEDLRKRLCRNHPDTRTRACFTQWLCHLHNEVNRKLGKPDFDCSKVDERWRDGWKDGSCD
Cytochrome P450 2C19, sequence (P33261 whole entry): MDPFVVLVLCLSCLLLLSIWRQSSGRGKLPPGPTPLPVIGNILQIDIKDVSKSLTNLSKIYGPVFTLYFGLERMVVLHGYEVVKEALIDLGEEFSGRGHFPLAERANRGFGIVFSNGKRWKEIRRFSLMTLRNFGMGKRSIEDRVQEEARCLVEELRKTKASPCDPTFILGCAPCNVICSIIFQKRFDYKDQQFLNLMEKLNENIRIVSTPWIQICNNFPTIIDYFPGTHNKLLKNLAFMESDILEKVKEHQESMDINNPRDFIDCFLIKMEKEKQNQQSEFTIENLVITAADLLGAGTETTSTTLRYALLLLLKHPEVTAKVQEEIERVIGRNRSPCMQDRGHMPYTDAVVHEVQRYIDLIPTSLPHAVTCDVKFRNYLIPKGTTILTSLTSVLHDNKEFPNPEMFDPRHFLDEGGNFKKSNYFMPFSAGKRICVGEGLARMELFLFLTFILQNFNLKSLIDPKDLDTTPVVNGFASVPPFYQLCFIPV

CC/C(=C\C1CCCCC1)C(NP(=O)(c1ccccc1)c1ccccc1)c1ccccc1 (configuration not stated)
EC50 [1]: 2.26 µM (active)
AC50 [2]: 2.58 µM (active)
EC50 [3]: 1.68 µM (active)

CCN(CCNC(=O)C1CCCN(S(=O)(=O)c2c[nH]cn2)C1)c1ccccc1 (configuration not stated)
AC50 [4]: 0.394 µM (active)

CCN1/C(=C2/SC(=S)NC2=O)Sc2ccccc21
AC50 [4]: 2.18 µM (active)

Brc1ccccc1OCCOCCOc1cccc2cccnc12
AC50 [5]: 39.8 µM (inconclusive)
AC50 [6]: 11.2 µM (inconclusive)
AC50 [7]: 3.16 µM (inconclusive)

CN1CCCC(CN2c3ccccc3Sc3ccccc32)C1 (configuration not stated) [MEPAZINE ACETATE]
AC50 [4]: 0.098 µM (active)

COc1cc2c(c(OC)c1OC)-c1ccc(O)c(=O)cc1[C@H](N)CC2
AC50 [5]: 3.16 µM (inconclusive)

O=C(NCCc1ccccc1)c1cc(-c2ccccc2)c(N2CCOCC2)s1
AC50 [2]: 3.48 µM (active)

COc1ccc(CSC2=C(C#N)C(=O)NC3(CCCCC3)S2)cc1
AC50 [6]: 3.16 µM (inconclusive)

COc1ccc(CNc2ccnc(-c3c(C)noc3C)n2)c(OC)c1
AC50 [6]: 1 µM (inconclusive)
AC50 [8]: 39.8 µM (inconclusive)

C/C(=N\Nc1nc2ccccc2[nH]1)c1cccs1
AC50 [4]: 0.02 µM (active)
IC50 [9]: 26.8 µM (active)

C=CCc1cccc(CNc2nc3ccccc3n2CCC)c1O
AC50 [2]: 7.58 µM (active)

Cc1ccc(NC(=O)c2cc([N+](=O)[O-])ccc2NCc2cccnc2)cc1Cl
EC50 [10]: 1.82 µM (active)
AC50 [6]: 0.251 µM (inconclusive)
EC50 [11]: > 60 µM (not active)
AC50 [8]: 0.794 µM (inconclusive)

CC(=O)N1CCC2(CCCN(Cc3nccs3)C2)CC1
AC50 [5]: 39.8 µM (inconclusive)
AC50 [8]: 15.8 µM (inconclusive)

O=C1N/C(=C\c2ccc(N3CCOCC3)c(F)c2)C(=O)N1Cc1ccccc1
AC50 [5]: 0.794 µM (inconclusive)
AC50 [12]: 2 µM (inconclusive)

COc1ccc(-c2[nH]c(-c3ccc(C(=O)O)cc3)nc2-c2ccccc2)cc1
AC50 [4]: 3.94 µM (active)
AC50 [7]: 39.8 µM (inconclusive)
AC50 [12]: 28.2 µM (inconclusive)

Cc1ccc(CSc2nnc(-c3ccncc3)n2CC2CCCO2)cc1 (configuration not stated)
AC50 [5]: 1.41 µM (inconclusive)

COC(=O)c1sccc1-c1ccc(C(=O)Nc2cccc(Cl)c2)o1
AC50 [5]: 28.2 µM (inconclusive)

CN1CCN(c2ncnc3ccc(-c4cccc(C#N)c4)cc23)CC1
AC50 [5]: 25.1 µM (inconclusive)

C[C@H](C(=O)c1ccncc1)c1ccccn1
AC50 [5]: 3.98 µM (inconclusive)

O=C(O)c1ccc(-n2c(/C=C/c3ccccc3)nc3ccccc3c2=O)cc1
AC50 [4]: 5.95 µM (active)

Cn1c(S)nnc1CSCc1ccc(Cl)cc1
AC50 [4]: 8.71 µM (active)

O=C(O)c1cc2ccccc2cc1Nc1ccccc1
AC50 [4]: 1.49 µM (active)

NC(=O)C1CCN(C(=O)N2c3ccccc3Sc3ccccc32)CC1
AC50 [4]: 10.8 µM (active)

CCOc1ccc(OCc2cccc(C(=O)Nc3ccc(CN4CCCCC4)cc3)c2)cc1
AC50 [2]: 5.46 µM (active)

CC(C)C[C@H](NC(=O)N1CCCCCC1)C(=O)N[C@H](Cc1cn(C)c2ccccc12)C(=O)N[C@H](Cc1ccccn1)C(=O)O
AC50 [5]: 15.8 µM (inconclusive)
AC50 [12]: 39.8 µM (inconclusive)

O=C(O)CC/C(=N\Nc1ccccc1[N+](=O)[O-])c1cccs1
AC50 [4]: 2.73 µM (active)

CN1CC(=O)N(CC(=O)Nc2ccc(SC(F)F)cc2)C1=O
AC50 [4]: 0.477 µM (active)

COc1ccc(CNc2ncnc3ccc(-c4cccc(C#N)c4)cc23)c(OC)c1
AC50 [6]: 0.0158 µM (inconclusive)

COc1ccc(CCNC(=O)CCN2C(=O)COc3ccc(C)cc32)cc1OC
AC50 [6]: 28.2 µM (inconclusive)
AC50 [8]: 39.8 µM (inconclusive)

COc1ccc(C(C(=O)NC2CCCCC2)N(C(=O)CCCC(=O)Nc2ccccn2)c2ccc3c(c2)OCCO3)cc1 (configuration not stated)
AC50 [6]: 14.1 µM (inconclusive)
AC50 [7]: 7.94 µM (inconclusive)

CN(C)C(=O)c1ccc(-c2cncnc2Nc2ccccc2)cc1
AC50 [5]: 5.01 µM (inconclusive)
AC50 [12]: 31.6 µM (inconclusive)

Cc1ccc(N2CC(C(=O)Nc3cc(C)on3)CC2=O)cc1 (configuration not stated)
AC50 [5]: 22.4 µM (inconclusive)
AC50 [6]: 11.2 µM (inconclusive)

CCc1cc2ccc(C)cc2nc1SCC(=O)c1ccc(NC(C)=O)cc1
AC50 [2]: 3.68 µM (active)

COc1ccc(/C=C2\SC(=S)N(CCC(=O)NC3CCCC3)C2=O)cc1OC
EC50 [13]: > 300 µM (not active)
EC50 [14]: 153 µM (active)

CCc1ccc2c(c1)[C@H]1OCC[C@H]1[C@@H](c1cccs1)N2
AC50 [2]: 2.97 µM (active)

COc1cccc(-c2cc(C(F)(F)F)nc(N3CCN(c4ccccc4)CC3)n2)c1
AC50 [6]: 0.631 µM (inconclusive)

Cn1c(N)c(C(=O)CSc2ccc3c(c2)OCCO3)c(=O)n(C)c1=O
AC50 [6]: 39.8 µM (inconclusive)

CC(C)Cc1nnc(NC(=O)CCC(=O)N2CC(C)CC(C)C2)s1 (configuration not stated)
EC50 [13]: > 300 µM (not active)
EC50 [14]: > 300 µM (not active)

CCCSc1nc(SCC(=O)NCc2ccccc2)c2c3c(sc2n1)COC(C)(CC)C3 (configuration not stated)
AC50 [5]: 7.08 µM (inconclusive)

CN(C)c1ccc(C(C(=O)NC2CCCC2)N(C(=O)c2ccco2)C2CC2)cc1 (configuration not stated)
AC50 [4]: 2.33 µM (active)

COc1ccc(C(=O)/C=C(/C)N(C)C)cc1
AC50 [5]: 5.01 µM (inconclusive)
AC50 [7]: 11.2 µM (inconclusive)
